Reference: PubChem BioAssay AID2305 (GlaxoSmithKline (GSK), 2010)

system: P. falciparum 3D7 growth, pLDH absorbance; experiment: blood-stage malaria parasite growth potency – strain 3D7, dose response (AID 2305)

Row | Compound | IC50 [nM]
1 | O=[N+]([O-])c1cccc(CNC2CCN(Cc3ccc(Cl)c(Cl)c3)CC2)c1 | 460
2 | NC(=O)Nc1ccc2c(Nc3ccc(OCc4ccccc4)cc3)ncnc2c1 | 1260
3 | CN(C(=O)c1ccccc1)[C@@H]1c2cc(C#N)ccc2OC(C)(C)[C@H]1O | 650
4 | Cc1ccc(C(=O)Nc2cccc(CN3CCCN(Cc4ccc(O)cc4)CC3)c2)s1 | 1000
5 | CC(C)C[C@H](NC(=O)c1ccc(OCCN2CCOCC2)cc1)C(=O)N[C@H](/C=N/NC(=O)c1ccccc1)CCc1ccccc1 | 60
6 | Cc1[nH]c(C)c(-c2ccc(-c3cccc(Cl)c3)nc2)c(=O)c1Cl | 190
7 | OCCNc1nc(Nc2ccc(F)cc2)nc2ccccc12 | 160
8 | O=C(/C=C/c1ccc(Cl)c(Cl)c1)NCCCCCN1CCCN(C(=O)Nc2ccc(F)c(Cl)c2)CC1 | 800
9 | CS(=O)(=O)c1ccc2nc(NC(=O)c3csnn3)sc2c1 | 670
10 | COc1ccccc1C1CCN(C2CCC(NC(=O)/C=C/c3cc(F)cc(F)c3)CC2)CC1 (stereo not given) | 1110
11 | CCCCCCCN1CC[C@@H](CCCc2ccnc3ccc(OCCCCNC(N)=O)cc23)[C@@H](CC)C1 | 840
12 | O=C(c1ccc(Cl)cc1)C1CCN(CCCOc2ccc3c(c2)CCNCC3)CC1 | 1150
13 | Cc1cc(N2CCCC2)nc(/N=C(\N)Nc2cccc(C(F)(F)F)c2)n1 | 320
14 | Clc1ccc2c(Cl)c(CNCCCNc3nc4ccccc4[nH]3)[nH]c2c1 | 220
15 | N#Cc1ccc(-c2ccc(C(=O)NCCCCN3CCC(c4ccc5c(c4OCc4ccncc4)CCCC5)CC3)cc2)cc1 | 760
16 | CCCCCCOc1ccc(C(=O)NCCC2CCN(CCCCCNC(=O)C=Cc3ccc(Cl)c(Cl)c3)CC2)cc1 | 660
17 | COc1ccccc1CN1CCC(CNC(=O)c2cc(-c3cccc(C(F)(F)F)c3)cs2)C1 (stereo not given) | 1310
18 | Cc1ccccc1C1CCN(c2ccc(NC(=O)c3ccc(Cl)nc3)cc2)CC1 | 1030
19 | CCN(CCNC(=O)Nc1cc(C(F)(F)F)cc(C(F)(F)F)c1)c1cccc(C)c1 | 800
20 | Cc1nc(-c2nc(NCc3ccccn3)ncc2-c2ccsc2)sc1C | 560

Row | Compound | IC50 [nM]
21 | COc1cc2c(=O)c(Cc3ccc(Cl)cc3)c(C)[nH]c2cc1F | 1160
22 | COc1cc(Cc2cnc(N)nc2N)cc(OC)c1OCCCCC(=O)O | 1140
23 | COc1cc(Cc2cnc(N)nc2N)cc(OCCCCCC(=O)O)c1OC | 230
24 | CC(C)(NCc1ccc(OC(F)(F)F)cc1)c1nc(-c2ccc(Cl)c(O)c2)c(-c2ccncc2)[nH]1 | 940
25 | CN(c1ccc2c(c1)nc(Nc1cc(C(C)(C)C)on1)n2C)c1ccnc(Nc2ccc(CS(C)(=O)=O)cc2)n1 | 900
26 | CCN(c1ccc(O)c(CN2CCCCC2)c1)c1ccc([N+](=O)[O-])cn1 | 890
27 | CCOc1ccccc1CNc1nccc(NCc2ccc(Cl)cc2Cl)n1 | 1100
28 | Cc1[nH]c(C)c(-c2ccc(OCCSc3ccncc3)cc2)c(=O)c1Br | 390
29 | Cc1ccc(C(O)CNc2ccnc(Nc3cccc(-c4csc(C)n4)c3)n2)cc1 (stereo not given) | 830
30 | Nc1nc2c(c(=O)[nH]1)-c1cccc(Br)c1CC2 | 700
31 | CC(C)(C)COc1ccc2c(N)n[nH]c2c1 | 790
32 | Cc1[nH]c(C)c(-c2ccc(Br)cc2)c(=O)c1Cl | 840
33 | O=C(N[C@H]1CCN(Cc2ccc(OCCN3CCNCC3)c(Cl)c2)C1)c1ccc(Cl)c(Cl)c1 | 1060
34 | N#Cc1ccc(N2C[C@@H](OCc3ccccc3)C[C@H]2C(=O)NCCC(c2ccccc2)c2ccccc2)c2ccccc12 | 860
35 | COc1ccc2nc(C)cc(N/N=C/C=C/c3ccccc3)c2c1 | 700
36 | COc1ccccc1CCNc1nccc(N[C@@H](Cc2ccccc2)C(=O)NCc2cccs2)n1 | 870
37 | O=C(Nc1ccc2oc(-c3ccc(Br)cc3)nc2c1)c1ccc([N+](=O)[O-])o1 | 970
38 | O=C(NCc1ccc(F)cc1)c1cnc(N2CCN(c3ccncc3)CC2)c(Cl)c1 | 1390
39 | O=C(NCCN1CCC(c2ccncc2)CC1)c1cccc(Nc2nccc(Nc3ccc(Oc4ccccc4)cc3)n2)c1 | 170
40 | CC(C)N(C(=O)CSc1nc2cc(Cl)ccc2c(=O)n1Cc1ccccc1)C(C)C | 170
